# Test results from patent US20250387360A1, “Methods and Compositions for Treatment of Addiction” (University of Connecticut, priority 2024, published 2025).
# System: male C57BL/6J mice
# Assay: 4-day DID binge-like ethanol drinking with SCFA supplementation in drinking water
# Assay type: in vivo, mouse
# Details: for alcohol intake with SCFA supplement: 200 mM in drinking water 10 days, n=7 mice/group
# Text: Male C57BL/6J mice, (RRID: IMSR_JAX: 000664), aged 6-8 weeks, were obtained from Jackson Laboratories (ME, U.S.A) for the study. The mice were housed individually under a reversed 12-hours light/dark cycle, with lights off from […] to 7:00 am. A minimum acclimation period of 2 weeks was provided for all animals before they were randomly assigned to their respective groups. Mice had free access to food (Irradiated chow, Teklad global 18% protein rodent diet, 2918, Inotiv, WI, U.S.A) and deionized water to acclimate to the testing environment. Body weight and daily food and fluid intake were monitored and noted for all animal experiments.
# A standard 4-day drinking in the dark (DID) model was used to evaluate binge-like ethanol drinking patterns in mice. A 20% v/v ethanol solution was prepared by diluting 190-proof ethyl alcohol (Sigma, MO, U.S.A) with deionized water. During days 1-3, the water bottles were temporarily removed during the dark cycle of the mice, and the mice were provided with a tube containing the 20% v/v ethanol solution for a duration of two hours. On day four, the assessment of binge-like ethanol consumption took place, where the mice were given access to the 20% v/v ethanol solution for a period of four hours. The volume of fluid in the tube (read to the closest 100 μL) was measured immediately upon placement, and at two hours and four hours into the test. Following the completion of the four hours test, approximately 100 μL of blood was collected through cardiac puncture after CO2 euthanasia. Blood samples were subjected to centrifugation at 10,000 rpm for 10 minutes. The determination of blood ethanol concentrations (BEC) was performed using an Analox AMI Analyzer (Analox Instruments, MA, U.S.A). The quantity of ethanol consumed was then calculated as grams per kilogram of the mouse's body weight.
# All SCFA were used in sodium salt form. Briefly, sodium acetate (Sigma, MO, U.S.A), sodium butyrate (Sigma, MO, U.S.A), sodium valerate (Ambeed, IL, U.S.A), and sodium chloride (NaCl; Sigma, Mo, U.S.A) were prepared at 200 mM concentration freshly in drinking water every two days. These concentrations were chosen based on earlier studies conducted in mice [Qi Y., et al., Sodium acetate regulates milk fat synthesis through the activation of GPR41/GPR43 signaling pathway. Frontiers in nutrition 2023, 10:1098715; Daien C I, et al., Gut-derived acetate promotes B10 cells with anti-inflammatory effects. JCI insight 2021, 6 (7)]. All SCFA and NaCl solutions were pH verified to control for acidity effects on daily consumption. SCFAs were given to mice via oral drinking for 10 consecutive days before any experiment, and this regimen was maintained throughout the entire experiment.
# General statistical analysis (non-microbiome and non-RNAseq analysis) were conducted using GraphPad Prism 8 (GraphPad, CA, USA, RRID:SCR_002798). For the calculation of ethanol consumption during the DID procedure, it was expressed as grams of ethanol per kilogram of body weight (g/kg body weight), where 20% ethanol intake was determined as follows: multiplying the drinking volume by the ethanol percentage within that volume and the density of ethanol, and then dividing this by the mouse's body weight in kilograms. Normality of data distributions was tested by Shapiro-Wilk test and by Q-Q plots. Levene's test was used to test equality of variances across groups. Unpaired Student's t-tests were used to compare behavioral testing, GABA levels, and histone acetylation measurements between the sodium valerate and NaCl groups. To evaluate the impact of antibiotic cocktail administration on ethanol consumption and BEC between the groups receiving Abx and PBS at baseline and after treatment, a mixed ANOVA test was employed, given repeated measures from the same mouse from the two time points. Similarly, mixed ANOVA tests were applied to compare various SCFA levels before and after Abx administration.
# [1] = supplementation in drinking water, DID
SMILES,BEC (in words) [1],ethanol consumption (in words) [1],alcohol intake with SCFA supplement
CCCCC(=O)O [valeric acid],significant reduction,significant reduction,
"CC(=O)[O-].[Na+] [sodium acetate, reference compound]",,,no statistical changes
"CCCC(=O)[O-].[Na+] [sodium butyrate, reference compound]",,,no statistical changes
